US8192962B2, “Processes for detecting toxic substances” (Daikin Industries, Ltd., priority 2001, dated 2012)

System: Detoxification protein genes
Experiment: DNA chip mRNA expression in yeast, detoxification protein genes (Table 8)
Assay type: cell-based, Saccharomyces cerevisiae S288C
Outline: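 Chemical exposure: 2 h, log-phase S. cerevisiae S288C, YPD, 25° C., dose set to inhibit growth without death. Profiling: mRNA labeled by reverse transcription with Cy3- or Cy5-dUTP, hybridized to whole-genome array. Output: fluorescence ratio against untreated culture.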

[Cl][Hg][Cl] [(3), HgCl2]
The level of expressed mRNA in the presence of chemical substance/The level of expressed mRNA in the absence of chemical substance (yeast gene YBL064C): 3.9 | The level of expressed mRNA in the presence of chemical substance/The level of expressed mRNA in the absence of chemical substance (yeast gene YBR008C): 4.9 | The level of expressed mRNA in the presence of chemical substance/The level of expressed mRNA in the absence of chemical substance (yeast gene YBR145W): 2.8 | The level of expressed mRNA in the presence of chemical substance/The level of expressed mRNA in the absence of chemical substance (yeast gene YBR244W): 2.0 | The level of expressed mRNA in the presence of chemical substance/The level of expressed mRNA in the absence of chemical substance (yeast gene YBR293W): 1.0 | The level of expressed mRNA in the presence of chemical substance/The level of expressed mRNA in the absence of chemical substance (yeast gene YCL035C): 1.5 | The level of expressed mRNA in the presence of chemical substance/The level of expressed mRNA in the absence of chemical substance (yeast gene YCL069W): 0.9 | The level of expressed mRNA in the presence of chemical substance/The level of expressed mRNA in the absence of chemical substance (yeast gene YCR083W): 1.5 | The level of expressed mRNA in the presence of chemical substance/The level of expressed mRNA in the absence of chemical substance (yeast gene YDL100C): 1.1 | The level of expressed mRNA in the presence of chemical substance/The level of expressed mRNA in the absence of chemical substance (yeast gene YDL168W): 2.1 | The level of expressed mRNA in the presence of chemical substance/The level of expressed mRNA in the absence of chemical substance (yeast gene YDR256C): 0.7 | The level of expressed mRNA in the presence of chemical substance/The level of expressed mRNA in the absence of chemical substance (yeast gene YDR453C): 4.4 | The level of expressed mRNA in the presence of chemical substance/The level of expressed mRNA in the absence of chemical substance (yeast gene YDR513W): 2.3 | The level of expressed mRNA in the presence of chemical substance/The level of expressed mRNA in the absence of chemical substance (yeast gene YDR538W): 2.4 | The level of expressed mRNA in the presence of chemical substance/The level of expressed mRNA in the absence of chemical substance (yeast gene YEL027W): 3.4 | The level of expressed mRNA in the presence of chemical substance/The level of expressed mRNA in the absence of chemical substance (yeast gene YEL065W): 1.2 | The level of expressed mRNA in the presence of chemical substance/The level of expressed mRNA in the absence of chemical substance (yeast gene YER185W): 2.1 | The level of expressed mRNA in the presence of chemical substance/The level of expressed mRNA in the absence of chemical substance (yeast gene YFL050C): 1.1 | The level of expressed mRNA in the presence of chemical substance/The level of expressed mRNA in the absence of chemical substance (yeast gene YGL013C): 0.8 | The level of expressed mRNA in the presence of chemical substance/The level of expressed mRNA in the absence of chemical substance (yeast gene YGL254W): 0.8 | The level of expressed mRNA in the presence of chemical substance/The level of expressed mRNA in the absence of chemical substance (yeast gene YGR088W): 7.7 | The level of expressed mRNA in the presence of chemical substance/The level of expressed mRNA in the absence of chemical substance (yeast gene YGR138C): 1.0 | The level of expressed mRNA in the presence of chemical substance/The level of expressed mRNA in the absence of chemical substance (yeast gene YGR197C): 2.5 | The level of expressed mRNA in the presence of chemical substance/The level of expressed mRNA in the absence of chemical substance (yeast gene YGR209C): 3.5 | The level of expressed mRNA in the presence of chemical substance/The level of expressed mRNA in the absence of chemical substance (yeast gene YGR224W): 1.2 | The level of expressed mRNA in the presence of chemical substance/The level of expressed mRNA in the absence of chemical substance (yeast gene YHL040C): 1.5 | The level of expressed mRNA in the presence of chemical substance/The level of expressed mRNA in the absence of chemical substance (yeast gene YHL047C): 1.0 | The level of expressed mRNA in the presence of chemical substance/The level of expressed mRNA in the absence of chemical substance (yeast gene YHR008C): 4.8 | The level of expressed mRNA in the presence of chemical substance/The level of expressed mRNA in the absence of chemical substance (yeast gene YHR048W): 1.4 | The level of expressed mRNA in the presence of chemical substance/The level of expressed mRNA in the absence of chemical substance (yeast gene YHR053C): 0.7 | The level of expressed mRNA in the presence of chemical substance/The level of expressed mRNA in the absence of chemical substance (yeast gene YHR055C): 0.8 | The level of expressed mRNA in the presence of chemical substance/The level of expressed mRNA in the absence of chemical substance (yeast gene YIR002C): 0.5 | The level of expressed mRNA in the presence of chemical substance/The level of expressed mRNA in the absence of chemical substance (yeast gene YIR038C): 4.6 | The level of expressed mRNA in the presence of chemical substance/The level of expressed mRNA in the absence of chemical substance (yeast gene YJL101C): 2.1 | The level of expressed mRNA in the presence of chemical substance/The level of expressed mRNA in the absence of chemical substance (yeast gene YJR104C): 2.9 | The level of expressed mRNA in the presence of chemical substance/The level of expressed mRNA in the absence of chemical substance (yeast gene YKL026C): 1.2 | The level of expressed mRNA in the presence of chemical substance/The level of expressed mRNA in the absence of chemical substance (yeast gene YKL064W): 0.4 | The level of expressed mRNA in the presence of chemical substance/The level of expressed mRNA in the absence of chemical substance (yeast gene YKR066C): 5.5 | The level of expressed mRNA in the presence of chemical substance/The level of expressed mRNA in the absence of chemical substance (yeast gene YKR105C): 0.9 | The level of expressed mRNA in the presence of chemical substance/The level of expressed mRNA in the absence of chemical substance (yeast gene YKR106W): 2.1 | The level of expressed mRNA in the presence of chemical substance/The level of expressed mRNA in the absence of chemical substance (yeast gene YLL028W): 4.6 | The level of expressed mRNA in the presence of chemical substance/The level of expressed mRNA in the absence of chemical substance (yeast gene YLL057C): 1.8 | The level of expressed mRNA in the presence of chemical substance/The level of expressed mRNA in the absence of chemical substance (yeast gene YLL060C): 2.3 | The level of expressed mRNA in the presence of chemical substance/The level of expressed mRNA in the absence of chemical substance (yeast gene YLR043C): 2.0 | The level of expressed mRNA in the presence of chemical substance/The level of expressed mRNA in the absence of chemical substance (yeast gene YLR046C): 0.9 | The level of expressed mRNA in the presence of chemical substance/The level of expressed mRNA in the absence of chemical substance (yeast gene YML028W): 4.4 | The level of expressed mRNA in the presence of chemical substance/The level of expressed mRNA in the absence of chemical substance (yeast gene YML116W): 1.5 | The level of expressed mRNA in the presence of chemical substance/The level of expressed mRNA in the absence of chemical substance (yeast gene YMR015C): 1.9 | The level of expressed mRNA in the presence of chemical substance/The level of expressed mRNA in the absence of chemical substance (yeast gene YMR038C): 1.8 | The level of expressed mRNA in the presence of chemical substance/The level of expressed mRNA in the absence of chemical substance (yeast gene YNL239W): 2.4 | The level of expressed mRNA in the presence of chemical substance/The level of expressed mRNA in the absence of chemical substance (yeast gene YNL241C): 4.3 | The level of expressed mRNA in the presence of chemical substance/The level of expressed mRNA in the absence of chemical substance (yeast gene YNL259C): 1.1 | The level of expressed mRNA in the presence of chemical substance/The level of expressed mRNA in the absence of chemical substance (yeast gene YOL158C): 2.4 | The level of expressed mRNA in the presence of chemical substance/The level of expressed mRNA in the absence of chemical substance (yeast gene YOR031W): 1.3 | The level of expressed mRNA in the presence of chemical substance/The level of expressed mRNA in the absence of chemical substance (yeast gene YOR153W): 5.1 | The level of expressed mRNA in the presence of chemical substance/The level of expressed mRNA in the absence of chemical substance (yeast gene YOR247W): 3.6 | The level of expressed mRNA in the presence of chemical substance/The level of expressed mRNA in the absence of chemical substance (yeast gene YOR251C): 1.3 | The level of expressed mRNA in the presence of chemical substance/The level of expressed mRNA in the absence of chemical substance (yeast gene YOR273C): 1.7 | The level of expressed mRNA in the presence of chemical substance/The level of expressed mRNA in the absence of chemical substance (yeast gene YPL163C): 1.4 | The level of expressed mRNA in the presence of chemical substance/The level of expressed mRNA in the absence of chemical substance (yeast gene YPR200C): 0.8
